From US20060246492A1, “Method for predicting responsiveness to drugs” (The General Hospital Corporation, priority 2005, published 2006)
Entries after “also recorded” stand apart in the source; their conditions may differ.

Tests used:
[1] = test system: GTL-16 gastric carcinoma cells; details: cited from earlier work
NIH3T3 fibroblasts = details: cited from earlier work
MLP-29 cells = details: cited from earlier work
MET = MET (Homo sapiens, UniProt P08581); details: nanomolar concentrations; cited from earlier work
MET, sequence (P08581 25-1390): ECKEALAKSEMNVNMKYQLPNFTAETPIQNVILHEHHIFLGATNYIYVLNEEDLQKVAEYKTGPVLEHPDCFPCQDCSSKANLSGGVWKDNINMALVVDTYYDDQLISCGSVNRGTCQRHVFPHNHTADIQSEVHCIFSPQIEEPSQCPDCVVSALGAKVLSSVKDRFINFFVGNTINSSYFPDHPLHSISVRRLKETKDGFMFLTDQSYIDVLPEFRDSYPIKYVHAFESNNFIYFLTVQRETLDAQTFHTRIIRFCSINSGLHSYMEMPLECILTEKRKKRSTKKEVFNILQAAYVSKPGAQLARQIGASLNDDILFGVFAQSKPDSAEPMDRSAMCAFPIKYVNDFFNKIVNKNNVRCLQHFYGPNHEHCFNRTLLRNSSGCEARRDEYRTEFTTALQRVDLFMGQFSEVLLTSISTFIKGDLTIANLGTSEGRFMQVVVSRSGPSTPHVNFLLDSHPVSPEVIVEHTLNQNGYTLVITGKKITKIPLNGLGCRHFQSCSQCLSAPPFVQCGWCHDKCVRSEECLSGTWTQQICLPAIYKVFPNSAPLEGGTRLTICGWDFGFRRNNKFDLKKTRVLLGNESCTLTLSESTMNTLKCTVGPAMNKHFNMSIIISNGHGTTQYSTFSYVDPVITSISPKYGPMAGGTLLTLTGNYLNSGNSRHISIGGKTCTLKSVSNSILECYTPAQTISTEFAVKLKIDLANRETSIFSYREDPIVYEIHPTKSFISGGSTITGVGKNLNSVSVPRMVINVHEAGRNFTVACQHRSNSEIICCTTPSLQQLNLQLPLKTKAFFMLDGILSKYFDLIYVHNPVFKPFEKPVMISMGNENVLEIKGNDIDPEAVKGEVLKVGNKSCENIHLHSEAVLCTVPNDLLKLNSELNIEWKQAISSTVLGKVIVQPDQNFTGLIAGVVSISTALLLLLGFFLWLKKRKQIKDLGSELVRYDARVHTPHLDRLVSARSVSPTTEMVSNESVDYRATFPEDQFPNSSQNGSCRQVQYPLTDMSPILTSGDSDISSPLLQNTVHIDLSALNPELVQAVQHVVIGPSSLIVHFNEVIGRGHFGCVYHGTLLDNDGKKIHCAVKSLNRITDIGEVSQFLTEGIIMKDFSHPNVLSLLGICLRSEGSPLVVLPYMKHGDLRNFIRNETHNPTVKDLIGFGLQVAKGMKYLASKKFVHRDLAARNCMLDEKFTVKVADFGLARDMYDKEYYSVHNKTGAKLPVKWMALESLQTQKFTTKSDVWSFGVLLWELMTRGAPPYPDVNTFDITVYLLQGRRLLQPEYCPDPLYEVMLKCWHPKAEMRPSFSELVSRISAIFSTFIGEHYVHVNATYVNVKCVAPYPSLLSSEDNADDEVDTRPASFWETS

MKN45 [2] = test: Drug-sensitivity screen of 40 human cancer cell lines (DNA staining, 3 days); format: cell-based; details: MKN45 gastric cancer cell line
Protocol: (§1) Cells were cultured and analyzed in triplicate within microtiter plates. Cell numbers were quantitated by DNA staining, 3 days after addition of various concentrations of drugs and expressed as a fraction of matched untreated cultures. For each drug concentration, cell lines with relative drug sensitivity (<50% of untreated control growth) are shown in darkest staining, intermediate sensitivity (50-75%) in […], and drug insensitivity (>75%) in intermediate shading.
(§2) Cellular Proliferation and Viability Assays. […] For quantitation of cellular proliferation, cells were fixed at appropriate time points in 4% paraformaldehyde, and all plates were stained simultaneously by using the fluorescent nucleic acid stain SYTO60 (Molecular Probes) at 1:8,000 dilution in PBS. Quantitation was done by measuring the […] at 700 nm by using the Odyssey Imaging System (LI-COR, Lincoln, Nebr.). The relative cell number was obtained by normalizing treated samples to matched untreated specimens. For quantitation of cell viability, cultures were stained after 4 days by using the MTT assay. Briefly, 10 μl of 5 mg/ml MTT (Thiazolyl blue) solution was added to each well and incubated for 2 h at 37° C. For adherent cell lines, the media was removed from each well, and the resultant MTT formazan was solubilized in 100 μl of DMSO. For nonadherent cell lines, the MTT formazan was solubilized by direct addition of 100 μl of acidic isopropanol (0.1 N HCl) to each well. The results were quantitated spectrophotometrically by using a test wavelength of 570 nm and a reference wavelength of 630 nm.

KATO III = test: MTT viability assay, gastric cancer cell line; format: cell-based; details: Homo sapiens, 96 h
Protocol: (§3) Cells were plated in 96-well plate in medium containing 4% fetal bovine serum at approximately 4000 cells/well. […] Cell viability was measured 96 h later using the MTT assay. Briefly, 10 ul of 5 mg/ml MTT (Thiazolyl blue) solution was added to each well and incubated for about 2 hours at 37° C. For adherent cell lines, the media was removed from each well and the resultant MTT formazan was solubilized in 100 ul of DMSO. For suspension cell lines, the MMT formazan was solubilized by direct addition of 100 ul of acidic isopropanol (0.1N HCl) to each well. The results were quantitated spectrophotometrically using a test wavelength of 570 nm and a reference wavelength of 630 nm.
as §2

Hs738T = test: MTT viability assay, gastric cancer cell line; format: cell-based; details: Homo sapiens, 96 h
Protocol: as §3, §2

TMK-1 = test: MTT viability assay, gastric cancer cell line; format: cell-based; details: Homo sapiens, TMK-1, 96 h
Protocol: as §3, §2

HSC39 = test: MTT viability assay, gastric cancer cell line; format: cell-based; details: Homo sapiens, 96 h
Protocol: as §3, §2

MKN45 [3] = test: MTT viability assay, gastric cancer cell line; format: cell-based; details: Homo sapiens, MKN-45, 96 h
Protocol: as §3, §2

SNU-16 = test: MTT viability assay, gastric cancer cell line; format: cell-based; details: Homo sapiens, SNU-16, 96 h
Protocol: as §3, §2

AGS = test: MTT viability assay, gastric cancer cell line; format: cell-based; details: Homo sapiens, 96 h
Protocol: as §3, §2

SNU-5 = test: MTT viability assay, gastric cancer cell line; format: cell-based; details: Homo sapiens, SNU-5, 96 h
Protocol: as §3, §2

MKN74 = test: MTT viability assay, gastric cancer cell line; format: cell-based; details: Homo sapiens, MKN-74, 96 h
Protocol: as §3, §2

KATO II = test: MTT viability assay, gastric cancer cell line; format: cell-based; details: Homo sapiens, 96 h
Protocol: as §3, §2

MKN7 = test: MTT viability assay, gastric cancer cell line; format: cell-based; details: Homo sapiens, MKN-7, 96 h
Protocol: as §3, §2

MKN1 = test: MTT viability assay, gastric cancer cell line; format: cell-based; details: Homo sapiens, MKN-1, 96 h
Protocol: as §3, §2

GTL16 = test: MTT viability assay, gastric cancer cell line; format: cell-based; details: Homo sapiens, GTL 16, 96 h
Protocol: as §3, §2

MKN28 = test: MTT viability assay, gastric cancer cell line; format: cell-based; details: Homo sapiens, MKN-28, 96 h
Protocol: as §3, §2

SNU-1 = test: MTT viability assay, gastric cancer cell line; format: cell-based; details: Homo sapiens, SNU1, 96 h
Protocol: as §3, §2

Hs746T = test: MTT viability assay, gastric cancer cell line; format: cell-based; details: Homo sapiens, 96 h
Protocol: as §3, §2

N87 = test: MTT viability assay, gastric cancer cell line; format: cell-based; details: Homo sapiens, 96 h
Protocol: as §3, §2

Amp+ cells [4] = test: Growth curve (SYTO60 staining); format: cell-based, human; details: 1 μM, up to 6 days
[5] = test system: MET autophosphorylation (Y1234/1235) in Amp+ cells; test: Immunoblotting of MET autophosphorylation; format: cell-based, human; details: 3 h, 50 nM
[6] = test system: platelet-derived growth factor receptor; details: cited from earlier work
Amp− cells [7] = test: Viability of gastric cancer cell lines without MET amplification (MTT); format: cell-based, human; details: 12 of 12 Amp− gastric cancer cell lines; 96 h
Amp+ cells [8] = test: Viability of gastric cancer cell lines with MET amplification (MTT); format: cell-based, human; details: 5 of 5 Amp+ gastric cancer cell lines; 96 h
Amp− cells [9] = test: Growth curve (SYTO60 staining); format: cell-based, human; details: 1 μM, up to 6 days
[10] = test system: ERK1/2, AKT, STAT3, or FAK in Amp− cells; test: Immunoblotting of downstream effector phosphorylation; format: cell-based, human; details: 3 h
Protocol: (§4) FIG. 3: Constitutive activation of MET and activation of downstream signaling pathways in Amp^+ cells. (FIG. 3A) MET is constitutively activated in the Amp^+ cells. […] (FIG. 3B) Effect of HGF on MET activation in Amp^+ and Amp^− cells (representative immunoblots). Cells were serum-starved for 24 h and treated with 40 ng/ml HGF for 10 minutes. Phosphorylation of MET (Y1234/1235) is unaltered in Amp^+ cells treated with HGF, but it is induced by HGF in Amp^− cells (total MET control).
(§5) Cells are costained with DAPI to show nuclei.
(§6) Cells were either directly lysated in 2× sample buffer or in RIPA buffer (150 mM NaCl, 50 mM Tris pH 8.0, 1% NP40, 0.5% DOC, 0.1% SDS, 1 mM EDTA, 10 mM NaF, 1 mM Na-orthovanadate, 1× protease inhibitor cocktail (Roche; Indianapolis, Ind.)). Cell lysates were sonicated for 10 sec and cleared by centrifugation at 14,000 rpm for 10 min at 4° C. Cleared lysates were boiled in sample buffer and loaded onto 10% SDS-PAGE gel. For immunoblotting analysis, proteins were transferred onto Immobilon PVDF membrane (Millipore; Bedford, Mass.) and visualized with Western Lightning Plus chemiluminescence kit (Perkin Elmer; Boston, Mass.).

[11] = test system: ERK1/2, AKT, STAT3, and FAK in Amp+ cells; test: as above; format: cell-based, human; details: 3 h, 50 nM
Protocol: as §4, §5, §6

Amp− cells [12] = test: Apoptosis induction assay (cleaved caspase-3, PARP cleavage); format: cell-based, human; details: 72 h, identical conditions
Protocol: as §5
(§7) Cells were plated on coverslips in 12-well dishes and grown to approximately 75% confluency in 10% serum. […] After 72 h the cells were fixed with 4% paraformaldehyde for 20 minutes. Permeabilization with 1% NP40 for 5 minutes was followed by blocking with 3% BSA for 30 minutes. The coverslips were then incubated overnight at 4° C. with cleaved caspase-3 antibody at 1:200 dilution. The next day, the coverslips were washed 3 times with PBS and incubated with a secondary antibody (goat anti-rabbit FITC-conjugated) for 1 h at 1:250 dilution. Following 5 washes with PBS, coverslips were mounted in Vectashield mounting medium containing DAPI (Vector Laboratories; Burlingame, Calif.).
(§8) Apoptosis Induction Assay. […] After 72 h, cells were fixed with 4% paraformaldehyde for 20 min, permeabilized by using 1% Nonidet P-40 for 5 min, and blocked with 3% BSA for 30 min. The coverslips were then incubated overnight at 4° C. with cleaved caspase-3 antibody at 1:200 dilution. The next day, the coverslips were washed three times with PBS and incubated with a secondary antibody (goat anti-rabbit FITC-conjugated) for 1 h at 1:250 dilution. After five washes with PBS, coverslips were mounted in Vectashield mounting medium containing DAPI (Vector Laboratories), and staining was visualized by fluorescent microscopy.

Amp+ cells [13] = test: as above; format: cell-based, human; details: 72 h, 1 μM (caspase-3), 500 nM (PARP)
Protocol: as §5, §7, §8

NCI-H1975 = test: Drug-sensitivity screen of 40 human cancer cell lines (DNA staining, 3 days); format: cell-based; details: NCI-H1975 (EGFR L858R and T790M)
Protocol: as §1, §2

NCI-H1650 = test: as above; format: cell-based; details: NCI-H1650 (EGFR del E746-A750), tested 100 nM to 10 μM
Protocol: as §1, §2

COC(=O)[C@@]1(O)C[C@H]2O[C@]1(C)n1c3ccccc3c3c4c(c5c6ccccc6n2c5c31)C(=O)NC4 [K252a]
Met-driven proliferation [1]: reduces Met-driven proliferation
Met mediated transformation (NIH3T3 fibroblasts): reverses Met mediated transformation
HGF-mediated scattering (MLP-29 cells): prevents HGF-mediated scattering
Met autophosphorylation (MET): inhibits Met autophosphorylation

Cc1[nH]c(/C=C2\C(=O)Nc3ccc(S(=O)(=O)Cc4c(Cl)cccc4Cl)cc32)c(C)c1C(=O)N1CCC[C@@H]1CN1CCCC1 [PHA-665752, (3Z)-5-[(2,6-dichlorobenzyl)sulfonyl]-3-[(3,5-dimethyl-4-{[(2R)-2-(pyrrolidin-1-ylmethyl)pyrrolidin-1-yl]carbonyl}-1H-pyrrol-2-yl)methylene]-1,3-dihydro-2H-indol-2-one]
Extreme sensitivity (drug concentration) (MKN45 [2]): 100 nM
viability at 0.5 µM (KATO III): 105 ± 9.5%
viability at 0.5 µM (Hs738T): 100 ± 12.3%
viability at 0.5 µM (TMK-1): 91.3 ± 2.1%
viability at 0.5 µM (HSC39): 92.8 ± 2.1%
viability at 0.5 µM (MKN45 [3]): 5.8 ± 0.5%
viability at 0.5 µM (SNU-16): 99.9 ± 1.5%
viability at 0.5 µM (AGS): 99.8 ± 1.9%
viability at 0.5 µM (SNU-5): 4 ± 0.2%
viability at 0.5 µM (MKN74): 89.6 ± 2.6%
viability at 0.5 µM (KATO II): 3.2 ± 0.3%
viability at 0.5 µM (MKN7): 118 ± 21.1%
viability at 0.5 µM (MKN1): 87.5 ± 4%
viability at 0.5 µM (GTL16): 12.8 ± 1.2%
viability at 0.5 µM (MKN28): 104 ± 4.2%
viability at 0.5 µM (SNU-1): 101 ± 3.2%
viability at 0.5 µM (Hs746T): 38.4 ± 1.2%
viability at 0.5 µM (N87): 86 ± 7.4%
effect on proliferation as a function of time (Amp+ cells [4]): initial arrest in proliferation, followed by cell death
constitutive MET autophosphorylation [5]: effectively suppressed the constitutive MET autophosphorylation
IC50 [6]: > 10 µM
effect on number of viable cells / proliferation (Amp− cells [7]): resistant; also recorded: no effect
effect on number of viable cells (Amp+ cells [8]): dramatic decrease in the number of viable cells; also recorded: dramatic reduction in cell numbers
effect on proliferation rate as a function of time (Amp− cells [9]): unaffected
baseline phosphorylation of ERK1/2, AKT, STAT3, FAK [10]: no effect on baseline phosphorylation
baseline phosphorylation of downstream effectors ERK1/2, AKT, STAT3, FAK [11]: effectively abrogated the baseline phosphorylation
induction of apoptosis (Amp− cells [12]): not in Amp− cells
induction of apoptosis (Amp+ cells [13]): induction of apoptosis; also recorded: demonstrated apoptosis

COc1cc2ncnc(Nc3ccc(F)c(Cl)c3)c2cc1OCCCN1CCOCC1 [gefitinib]
drug sensitivity (NCI-H1975): relatively resistant
Extreme sensitivity (drug concentration) (NCI-H1650): 100 nM
